{"source": "patent US8445509B2", "about": "“Fused heterocyclic derivatives and use thereof” (Takeda Pharmaceutical Company Limited, priority 2008, dated 2013)", "key": {"[1]": {"target": "T1, Tie2 intracellular domain protein (Homo sapiens, UniProt Q02763)", "T1 construct": "50 ng/mL of Tie2 intracellular domain protein (Millipore); purchased Millipore", "T1 sequence (Q02763 770-1124 limits assumed)": "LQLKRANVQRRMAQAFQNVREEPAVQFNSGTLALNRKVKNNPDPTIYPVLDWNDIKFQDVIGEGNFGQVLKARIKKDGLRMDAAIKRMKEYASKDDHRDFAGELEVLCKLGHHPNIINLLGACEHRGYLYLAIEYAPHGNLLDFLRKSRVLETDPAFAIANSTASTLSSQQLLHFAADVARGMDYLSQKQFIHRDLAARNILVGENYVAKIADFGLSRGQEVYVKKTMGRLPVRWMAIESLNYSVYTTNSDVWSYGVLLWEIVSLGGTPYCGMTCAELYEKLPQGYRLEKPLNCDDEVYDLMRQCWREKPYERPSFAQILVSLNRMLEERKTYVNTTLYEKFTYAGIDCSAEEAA", "experiment": "TIE2 kinase inhibitory activity (AlphaScreen)", "type": "biochemical"}, "[2]": {"target": "T2, FLT3 intracellular domain protein (Homo sapiens, UniProt P36888)", "T2 construct": "7.5 ng/ml of FLT3 intracellular domain protein (Millipore); purchased Millipore", "T2 sequence (P36888 564-993 limits assumed)": "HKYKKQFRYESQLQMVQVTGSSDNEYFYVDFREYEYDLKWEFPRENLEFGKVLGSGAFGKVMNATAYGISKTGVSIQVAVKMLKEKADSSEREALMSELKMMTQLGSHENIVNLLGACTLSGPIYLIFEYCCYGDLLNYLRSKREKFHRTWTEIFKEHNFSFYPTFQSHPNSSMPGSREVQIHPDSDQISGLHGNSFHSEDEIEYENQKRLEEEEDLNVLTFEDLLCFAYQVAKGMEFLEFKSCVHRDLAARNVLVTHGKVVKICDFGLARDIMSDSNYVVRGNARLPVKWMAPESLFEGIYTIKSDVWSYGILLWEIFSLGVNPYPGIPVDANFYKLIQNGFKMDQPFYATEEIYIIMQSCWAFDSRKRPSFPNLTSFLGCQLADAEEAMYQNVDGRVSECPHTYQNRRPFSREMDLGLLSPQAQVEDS", "experiment": "Fms Like Tyrosine Kinase 3 (FLT3) kinase inhibitory activity (AlphaScreen)", "type": "biochemical", "conditions": "for inhibition at 1 µM: 1 μM test compound, read-out: inhibitory rate (%) at 1 μM", "summary_of_the_method": "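FLT3 intracellular domain (7.5 ng/ml) and biotin-poly-Glu:Tyr (250 ng/mL), each as added, were preincubated 5 min with compound in Tris pH 7.5 with Mg²⁺, Mn²⁺, DTT and Tween-20. ATP was added (5 μM) for 10 min at 25 °C, then EDTA stop with streptavidin donor/anti-phosphotyrosine acceptor beads for 16 h. % inhibition was calculated against the no-compound control and the no-compound/no-ATP blank.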"}, "[3]": {"tested_on": "Human umbilical vein-derived vascular endothelial cells (HUVEC)", "experiment": "Vascular endothelial cell proliferation inhibitory test (VEGF-stimulated HUVEC)", "type": "cell-based", "conditions": "120 h, 5 days of culture with VEGF", "summary_of_the_method": "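HUVEC (3000 cells/well) in medium with 3% FBS, cultured overnight, then given test substance plus VEGF (120 ng/mL in the added medium). After 5 days at 37 °C, Cell Counting Kit-8 was applied for 2-3 h and A450 read. IC50 relative to no-compound wells, by logistic nonlinear least-squares fit.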"}}, "data": [{"smiles": "Cc1c(C(=O)Nc2ccc(Oc3ccc4nc(NC(=O)C5CC5)cn4c3)c(F)c2)c(=O)n(-c2ccc(F)cc2)n1C", "note": "[Example 77, N-[4-({2-[(cyclopropylcarbonyl)amino]imidazo[1,2-a]pyridin-6-yl}oxy)-3-fluorophenyl]-2-(4-fluorophenyl)-1,5-dimethyl-3-oxo-2,3-dihydro-1H-pyrazole-4-carboxamide]", "values": [{"measurement": "IC50", "setting": "[1]", "value": "≤ 1", "unit": "µM"}, {"measurement": "IC50", "setting": "[2]", "value": "≤ 1", "unit": "µM"}, {"measurement": "IC50", "setting": "[3]", "value": "≤ 2", "unit": "µM"}]}, {"smiles": "O=C(Nc1cn2cc(Oc3ccc(NC(=O)C4(C(=O)Nc5ccc(F)cc5)CC4)cc3F)ccc2n1)C1CC1", "note": "[Example 11, N-[4-({2-[(cyclopropylcarbonyl)amino]imidazo[1,2-a]pyridin-6-yl}oxy)-3-fluorophenyl]-N′-(4-fluorophenyl)cyclopropane-1,1-dicarboxamide]", "values": [{"measurement": "IC50", "setting": "[1]", "value": "≤ 1", "unit": "µM"}, {"measurement": "IC50", "setting": "[2]", "value": "≤ 1", "unit": "µM"}, {"measurement": "IC50", "setting": "[3]", "value": "≤ 2", "unit": "µM"}]}, {"smiles": "Cc1cc(C(=O)Nc2ccc(Oc3ccc4nc(NC(=O)C5CC5)cn4c3)c(F)c2)c(=O)n(-c2ccc(F)cc2)c1C", "note": "[Example 70, N-[4-({2-[(cyclopropylcarbonyl)amino]imidazo[1,2-a]pyridin-6-yl}oxy)-3-fluorophenyl]-1-(4-fluorophenyl)-5,6-dimethyl-2-oxo-1,2-dihydropyridine-3-carboxamide]", "values": [{"measurement": "IC50", "setting": "[1]", "value": "≤ 1", "unit": "µM"}, {"measurement": "IC50", "setting": "[2]", "value": "≤ 1", "unit": "µM"}, {"measurement": "IC50", "setting": "[3]", "value": "≤ 2", "unit": "µM"}]}, {"smiles": "Cc1c(C(=O)Nc2ccc(Oc3ccc4nc(NC(=O)C5CC5)cn4c3)c(F)c2)c(=O)n(-c2ccccc2)n1C", "note": "[Example 46, N-[4-({2-[(cyclopropylcarbonyl)amino]imidazo[1,2-a]pyridin-6-yl}oxy)-3-fluorophenyl]-1,5-dimethyl-3-oxo-2-phenyl-2,3-dihydro-1H-pyrazole-4-carboxamide]", "values": [{"measurement": "IC50", "setting": "[1]", "value": "≤ 1", "unit": "µM"}, {"measurement": "IC50", "setting": "[2]", "value": "≤ 1", "unit": "µM"}, {"measurement": "IC50", "setting": "[3]", "value": "≤ 2", "unit": "µM"}]}, {"smiles": "CC1=C(c2ccc(F)cc2)C(=O)N(C(=O)Nc2ccc(Oc3ccc4nc(NC(=O)C5CC5)cn4c3)c(F)c2)CC1", "note": "[Example 81, N-[4-({2-[(cyclopropylcarbonyl)amino]imidazo[1,2-a]pyridin-6-yl}oxy)-3-fluorophenyl]-5-(4-fluorophenyl)-4-methyl-6-oxo-3,6-dihydropyridine-1(2H)-carboxamide]", "values": [{"measurement": "IC50", "setting": "[1]", "value": "≤ 1", "unit": "µM"}, {"measurement": "IC50", "setting": "[2]", "value": "≤ 1", "unit": "µM"}, {"measurement": "IC50", "setting": "[3]", "value": "≤ 2", "unit": "µM"}]}, {"smiles": "Cc1cc(C)n(-c2ccc(F)cc2)c(=O)c1C(=O)Nc1ccc(Oc2ccc3nc(NC(=O)C4CC4)cn3c2)c(F)c1", "note": "[Example 82, N-[4-({2-[(cyclopropylcarbonyl)amino]imidazo[1,2-a]pyridin-6-yl}oxy)-3-fluorophenyl]-1-(4-fluorophenyl)-4,6-dimethyl-2-oxo-1,2-dihydropyridine-3-carboxamide]", "values": [{"measurement": "IC50", "setting": "[1]", "value": "≤ 1", "unit": "µM"}, {"measurement": "IC50", "setting": "[2]", "value": "≤ 1", "unit": "µM"}, {"measurement": "IC50", "setting": "[3]", "value": "≤ 2", "unit": "µM"}]}, {"smiles": "Cc1ccc(C(=O)Nc2ccc(Oc3ccc4nc(NC(=O)C5CC5)cn4c3)c(F)c2)[n+]([O-])c1-c1ccc(F)cc1", "note": "[Example 29, N-[4-({2-[(cyclopropylcarbonyl)amino]imidazo[1,2-a]pyridin-6-yl}oxy)-3-fluorophenyl]-6-(4-fluorophenyl)-5-methylpyridine-2-carboxamide 1-oxide]", "values": [{"measurement": "IC50", "setting": "[1]", "value": "≤ 1", "unit": "µM"}, {"measurement": "IC50", "setting": "[2]", "value": "≤ 1", "unit": "µM"}, {"measurement": "IC50", "setting": "[3]", "value": "≤ 2", "unit": "µM"}]}, {"smiles": "O=C(Nc1nc2ccc(Oc3ccc(NC(=O)C4(C(=O)Nc5ccccc5)CC4)cc3F)cc2s1)C1CC1", "note": "[Example 18, N-[4-({2-[(cyclopropylcarbonyl)amino]-1,3-benzothiazol-6-yl}oxy)-3-fluorophenyl]-N′-phenylcyclopropane-1,1-dicarboxamide]", "values": [{"measurement": "IC50", "setting": "[1]", "value": "≤ 1", "unit": "µM"}, {"measurement": "IC50", "setting": "[2]", "value": "≤ 1", "unit": "µM"}, {"measurement": "inhibition at 1 µM", "setting": "[2]", "value": "≥ 50", "unit": "%"}, {"measurement": "IC50", "setting": "[3]", "value": "≤ 2", "unit": "µM"}]}, {"smiles": "Cc1ccc(C(=O)Nc2ccc(Oc3ccc4nc(NC(=O)C5CC5)cn4c3)c(Cl)c2)c(=O)n1-c1ccc(F)cc1", "note": "[Example 57, N-[3-chloro-4-({2-[(cyclopropylcarbonyl)amino]imidazo[1,2-a]pyridin-6-yl}oxy)phenyl]-1-(4-fluorophenyl)-6-methyl-2-oxo-1,2-dihydropyridine-3-carboxamide]", "values": [{"measurement": "IC50", "setting": "[1]", "value": "≤ 1", "unit": "µM"}, {"measurement": "IC50", "setting": "[2]", "value": "≤ 1", "unit": "µM"}, {"measurement": "IC50", "setting": "[3]", "value": "≤ 2", "unit": "µM"}]}, {"smiles": "Cc1ccc(C(=O)Nc2ccc(Oc3ccc4nc(NC(=O)C5CC5)cn4c3)cc2)c(=O)n1-c1ccc(F)cc1", "note": "[Example 28, N-[4-({2-[(cyclopropylcarbonyl)amino]imidazo[1,2-a]pyridin-6-yl}oxy)phenyl]-1-(4-fluorophenyl)-6-methyl-2-oxo-1,2-dihydropyridine-3-carboxamide]", "values": [{"measurement": "IC50", "setting": "[1]", "value": "≤ 1", "unit": "µM"}, {"measurement": "IC50", "setting": "[2]", "value": "≤ 1", "unit": "µM"}, {"measurement": "inhibition at 1 µM", "setting": "[2]", "value": "≥ 50", "unit": "%"}, {"measurement": "IC50", "setting": "[3]", "value": "≤ 2", "unit": "µM"}]}, {"smiles": "O=C(Nc1cn2cc(Oc3ccc(NC(=O)C4(C(=O)Nc5ccccc5)CC4)cc3F)ccc2n1)C1CC1", "note": "[Example 14, N-[4-({2-[(cyclopropylcarbonyl)amino]imidazo[1,2-a]pyridin-6-yl}oxy)-3-fluorophenyl]-N′-phenylcyclopropane-1,1-dicarboxamide]", "values": [{"measurement": "IC50", "setting": "[1]", "value": "≤ 1", "unit": "µM"}, {"measurement": "IC50", "setting": "[2]", "value": "≤ 1", "unit": "µM"}, {"measurement": "IC50", "setting": "[3]", "value": "≤ 2", "unit": "µM"}]}, {"smiles": "Cc1ccc(C(=O)Nc2ccc(Oc3ccc4nc(NC(=O)C5CC5)cn4c3)c(F)c2)c(=O)n1-c1ccc(F)c(F)c1", "note": "[Example 45, N-[4-({2-[(cyclopropylcarbonyl)amino]imidazo[1,2-a]pyridin-6-yl}oxy)-3-fluorophenyl]-1-(3,4-difluorophenyl)-6-methyl-2-oxo-1,2-dihydropyridine-3-carboxamide]", "values": [{"measurement": "IC50", "setting": "[1]", "value": "≤ 1", "unit": "µM"}, {"measurement": "IC50", "setting": "[2]", "value": "≤ 1", "unit": "µM"}, {"measurement": "IC50", "setting": "[3]", "value": "≤ 2", "unit": "µM"}]}, {"smiles": "Cc1cc(C(=O)Nc2ccc(Oc3ccc4nc(NC(=O)C5CC5)cn4c3)c(F)c2)c(=O)n(-c2ccc(F)cc2)c1", "note": "[Example 66, N-[4-({2-[(cyclopropylcarbonyl)amino]imidazo[1,2-a]pyridin-6-yl}oxy)-3-fluorophenyl]-1-(4-fluorophenyl)-5-methyl-2-oxo-1,2-dihydropyridine-3-carboxamide]", "values": [{"measurement": "IC50", "setting": "[1]", "value": "≤ 1", "unit": "µM"}, {"measurement": "IC50", "setting": "[2]", "value": "≤ 1", "unit": "µM"}, {"measurement": "IC50", "setting": "[3]", "value": "≤ 2", "unit": "µM"}]}, {"smiles": "Cc1ccc(C(=O)Nc2ccc(Oc3ccc4nc(NC(=O)C5CC5)cn4c3)cn2)[n+]([O-])c1-c1ccc(F)cc1", "note": "[Example 61, N-[5-({2-[(cyclopropylcarbonyl)amino]imidazo[1,2-a]pyridin-6-yl}oxy)pyridin-2-yl]-6-(4-fluorophenyl)-5-methylpyridine-2-carboxamide 1-oxide]", "values": [{"measurement": "IC50", "setting": "[1]", "value": "≤ 1", "unit": "µM"}, {"measurement": "IC50", "setting": "[2]", "value": "≤ 1", "unit": "µM"}, {"measurement": "IC50", "setting": "[3]", "value": "≤ 2", "unit": "µM"}]}, {"smiles": "Cc1ccc(C(=O)Nc2ccc(Oc3ccn4nc(NC(=O)C5CC5)nc4c3)c(F)c2)c(=O)n1-c1ccc(F)cc1", "note": "[Example 76, N-[4-({2-[(cyclopropylcarbonyl)amino][1,2,4]triazolo[1,5-a]pyridine-7-yl}oxy)-3-fluorophenyl]-1-(4-fluorophenyl)-6-methyl-2-oxo-1,2-dihydropyridine-3-carboxamide]", "values": [{"measurement": "IC50", "setting": "[1]", "value": "≤ 1", "unit": "µM"}, {"measurement": "IC50", "setting": "[2]", "value": "≤ 1", "unit": "µM"}, {"measurement": "IC50", "setting": "[3]", "value": "≤ 2", "unit": "µM"}]}]}
